This is an account of results in ChEMBL document CHEMBL5465560, “Selectivity Literature for EUbOPEN Chemogenomic Library” (2024).

Assay [1] concerns the target Sodium-dependent noradrenaline transporter (Homo sapiens, UniProt P23975). As to the kind of experiment: Selectivity interaction (Panel of kinases, GPCRs, ion channels and transporters (enzymatic assay)) EUB0000266bCl SLC6A2.
The target of assay [2] is Hepatocyte growth factor-like protein (Homo sapiens) (UniProt P26927). As to the kind of experiment: Selectivity interaction (Kinase panel (Eurofins)) EUB0001564a MST1. The conditions noted are these: at 1 µM.
Assay [3] deals with T1, Mitogen-activated protein kinase 15 (Homo sapiens) (UniProt Q8TD08).
T1 sequence (whole entry): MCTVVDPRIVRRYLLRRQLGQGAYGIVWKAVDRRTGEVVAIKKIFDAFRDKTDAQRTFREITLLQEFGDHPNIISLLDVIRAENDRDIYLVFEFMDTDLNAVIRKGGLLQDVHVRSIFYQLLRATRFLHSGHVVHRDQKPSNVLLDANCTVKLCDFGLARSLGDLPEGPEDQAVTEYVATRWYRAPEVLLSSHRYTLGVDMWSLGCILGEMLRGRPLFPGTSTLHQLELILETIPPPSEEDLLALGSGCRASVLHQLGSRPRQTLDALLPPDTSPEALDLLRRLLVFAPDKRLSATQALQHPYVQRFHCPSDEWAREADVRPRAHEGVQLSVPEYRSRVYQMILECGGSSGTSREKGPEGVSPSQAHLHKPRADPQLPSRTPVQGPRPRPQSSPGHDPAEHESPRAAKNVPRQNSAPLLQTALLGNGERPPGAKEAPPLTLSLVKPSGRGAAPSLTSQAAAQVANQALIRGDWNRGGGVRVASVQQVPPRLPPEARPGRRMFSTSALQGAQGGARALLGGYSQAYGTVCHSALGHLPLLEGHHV
As to the kind of experiment: Selectivity interaction (Rxn Biology Kinase assay) EUB0001632a MAPK15. Conditions: at 10 µM.

Assay [4] deals with T2, Protein kinase C iota type (Homo sapiens) (UniProt P41743).
T2 sequence (whole entry): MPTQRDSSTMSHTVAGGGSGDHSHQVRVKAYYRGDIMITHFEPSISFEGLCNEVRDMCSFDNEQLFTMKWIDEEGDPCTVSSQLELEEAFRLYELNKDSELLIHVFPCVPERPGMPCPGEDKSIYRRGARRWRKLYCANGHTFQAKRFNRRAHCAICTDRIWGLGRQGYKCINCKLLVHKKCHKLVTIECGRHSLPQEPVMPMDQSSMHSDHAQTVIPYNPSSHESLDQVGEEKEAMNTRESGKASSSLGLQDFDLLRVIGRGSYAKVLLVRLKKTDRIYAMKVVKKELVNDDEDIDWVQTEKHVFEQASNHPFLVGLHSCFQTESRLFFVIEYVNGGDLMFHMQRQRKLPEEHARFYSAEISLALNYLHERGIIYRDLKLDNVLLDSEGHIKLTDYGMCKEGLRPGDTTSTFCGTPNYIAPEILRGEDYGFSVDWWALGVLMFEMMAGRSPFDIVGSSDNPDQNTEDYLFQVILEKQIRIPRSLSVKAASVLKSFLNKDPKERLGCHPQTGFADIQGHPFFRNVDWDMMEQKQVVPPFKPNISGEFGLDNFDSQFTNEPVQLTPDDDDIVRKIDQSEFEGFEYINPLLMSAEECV
As to the kind of experiment: Selectivity interaction (ActivX KiNativ screen (kinase selectivity in THP-1 cell lysates)) EUB0000639a PRKCI. The format is subcellular. The conditions noted are these: lysate, at 5 µM.

Assay [5] concerns the target T3, Phosphorylase b kinase gamma catalytic chain, liver/testis isoform (Homo sapiens) (UniProt P15735).
T3 sequence (whole entry): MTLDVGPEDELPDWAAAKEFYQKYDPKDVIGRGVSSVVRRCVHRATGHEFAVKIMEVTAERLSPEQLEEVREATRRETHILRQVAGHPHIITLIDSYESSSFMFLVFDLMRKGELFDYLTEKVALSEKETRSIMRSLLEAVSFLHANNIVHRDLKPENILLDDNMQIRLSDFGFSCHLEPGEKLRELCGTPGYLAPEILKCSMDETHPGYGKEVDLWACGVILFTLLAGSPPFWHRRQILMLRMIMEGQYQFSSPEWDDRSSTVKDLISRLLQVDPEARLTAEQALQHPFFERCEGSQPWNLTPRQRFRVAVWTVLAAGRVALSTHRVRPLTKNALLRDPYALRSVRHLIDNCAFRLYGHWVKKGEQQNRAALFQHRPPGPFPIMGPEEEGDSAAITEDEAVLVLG
As to the kind of experiment: Selectivity interaction (KinomeScan (DiscoverX)) EUB0000229b PHKG2. Conditions: at 10 µM.

Assay [6] has as its target Serine/threonine-protein kinase MARK2 (Homo sapiens) (UniProt Q7KZI7). As to the kind of experiment: Selectivity interaction (ActivX KiNativ screen (ex vivo kinase selectivity in human PBMCs)) EUB0001619a MARK2. Conditions: PBMC, at 1 µM. The format is cell-based.
For assay [7], the target named is T4, Serine/threonine-protein kinase ULK3 (Homo sapiens) (UniProt Q6PHR2).
T4 sequence (whole entry): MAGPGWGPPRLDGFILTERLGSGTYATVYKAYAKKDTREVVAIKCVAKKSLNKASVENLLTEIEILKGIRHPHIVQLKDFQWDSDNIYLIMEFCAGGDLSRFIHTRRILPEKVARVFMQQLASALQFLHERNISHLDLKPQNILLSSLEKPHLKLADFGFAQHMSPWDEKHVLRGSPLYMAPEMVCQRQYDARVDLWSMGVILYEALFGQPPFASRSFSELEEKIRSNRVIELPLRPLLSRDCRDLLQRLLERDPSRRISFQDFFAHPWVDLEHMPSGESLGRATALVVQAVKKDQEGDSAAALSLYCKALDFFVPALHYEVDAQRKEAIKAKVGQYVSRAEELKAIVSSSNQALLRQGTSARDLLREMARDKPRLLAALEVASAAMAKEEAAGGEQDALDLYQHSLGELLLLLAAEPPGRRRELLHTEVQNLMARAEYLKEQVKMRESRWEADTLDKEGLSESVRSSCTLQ
As to the kind of experiment: Selectivity interaction (KinomeScan (DiscoverX)) EUB0001619a ULK3. The conditions noted are these: at 1 µM.

Assay [8] has as its target Cyclin-dependent kinase 20 (Homo sapiens) (UniProt Q8IZL9). As to the kind of experiment: Selectivity interaction (Kinase panel (KiNativ target engagement assay in Jurkat cells)) EUB0001635a CDK20. The conditions noted are these: Selectivity number of off-targets 0.0, Selectivity number of targets 233.0, Source Knowledge https://www.sciencedirect.com/science/article/pii/S2451945619300674?via%3Dihub, at 1 µM. The format is cell-based.

Assay [9] addresses T5, Mitogen-activated protein kinase 12 (Homo sapiens) (UniProt P53778).
T5 sequence (whole entry): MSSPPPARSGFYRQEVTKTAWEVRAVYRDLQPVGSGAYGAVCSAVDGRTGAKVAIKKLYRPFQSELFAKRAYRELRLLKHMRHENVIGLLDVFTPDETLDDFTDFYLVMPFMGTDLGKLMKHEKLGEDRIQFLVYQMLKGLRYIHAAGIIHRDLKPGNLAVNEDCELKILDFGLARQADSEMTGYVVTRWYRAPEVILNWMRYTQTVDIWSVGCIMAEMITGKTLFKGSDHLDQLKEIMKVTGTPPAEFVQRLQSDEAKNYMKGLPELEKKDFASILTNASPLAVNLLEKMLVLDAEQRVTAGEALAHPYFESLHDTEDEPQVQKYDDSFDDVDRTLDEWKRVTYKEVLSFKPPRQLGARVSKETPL
As to the kind of experiment: Selectivity interaction (KinomeScan (DiscoverX)) EUB0000618a MAPK12. The conditions noted are these: at 10 µM.

Chain of Sodium-dependent noradrenaline transporter (P23975 whole entry): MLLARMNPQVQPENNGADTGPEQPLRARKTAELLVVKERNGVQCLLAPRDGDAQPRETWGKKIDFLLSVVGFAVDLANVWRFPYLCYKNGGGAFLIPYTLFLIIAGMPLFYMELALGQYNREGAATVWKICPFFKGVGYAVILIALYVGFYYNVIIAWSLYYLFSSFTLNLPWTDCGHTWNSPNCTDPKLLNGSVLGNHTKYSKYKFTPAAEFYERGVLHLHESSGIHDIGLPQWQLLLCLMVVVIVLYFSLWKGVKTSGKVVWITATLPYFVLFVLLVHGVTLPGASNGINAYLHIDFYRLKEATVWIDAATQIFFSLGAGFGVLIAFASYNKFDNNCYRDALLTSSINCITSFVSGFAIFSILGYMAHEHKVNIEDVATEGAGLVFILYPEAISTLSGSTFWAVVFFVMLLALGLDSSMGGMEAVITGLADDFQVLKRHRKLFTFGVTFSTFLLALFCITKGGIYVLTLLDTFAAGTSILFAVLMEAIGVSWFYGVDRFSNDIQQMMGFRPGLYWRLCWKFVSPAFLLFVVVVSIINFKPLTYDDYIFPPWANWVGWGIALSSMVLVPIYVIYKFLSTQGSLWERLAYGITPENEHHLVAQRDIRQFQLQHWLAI
Chain of Serine/threonine-protein kinase MARK2 (Homo sapiens) (Q7KZI7 whole entry): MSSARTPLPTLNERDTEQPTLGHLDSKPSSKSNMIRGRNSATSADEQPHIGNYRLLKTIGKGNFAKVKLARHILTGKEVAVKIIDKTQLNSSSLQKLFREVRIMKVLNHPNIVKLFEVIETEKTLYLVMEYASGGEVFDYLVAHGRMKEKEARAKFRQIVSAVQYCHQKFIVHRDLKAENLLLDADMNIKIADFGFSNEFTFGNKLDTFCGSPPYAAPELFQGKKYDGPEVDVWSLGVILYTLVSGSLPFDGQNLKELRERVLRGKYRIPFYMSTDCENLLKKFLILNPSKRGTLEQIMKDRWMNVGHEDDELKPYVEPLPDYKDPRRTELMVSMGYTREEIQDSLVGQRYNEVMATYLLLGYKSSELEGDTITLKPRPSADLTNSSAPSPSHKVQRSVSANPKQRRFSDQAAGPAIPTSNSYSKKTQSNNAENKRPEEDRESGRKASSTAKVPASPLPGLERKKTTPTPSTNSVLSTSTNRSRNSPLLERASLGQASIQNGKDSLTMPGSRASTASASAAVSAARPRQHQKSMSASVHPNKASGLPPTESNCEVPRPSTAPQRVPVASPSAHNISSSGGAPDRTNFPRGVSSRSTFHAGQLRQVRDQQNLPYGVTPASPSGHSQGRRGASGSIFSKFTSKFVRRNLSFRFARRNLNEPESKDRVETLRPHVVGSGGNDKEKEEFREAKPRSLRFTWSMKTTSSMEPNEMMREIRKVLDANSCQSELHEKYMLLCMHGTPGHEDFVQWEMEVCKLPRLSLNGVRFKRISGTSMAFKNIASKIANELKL
Chain of Cyclin-dependent kinase 20 (Homo sapiens) (Q8IZL9 whole entry): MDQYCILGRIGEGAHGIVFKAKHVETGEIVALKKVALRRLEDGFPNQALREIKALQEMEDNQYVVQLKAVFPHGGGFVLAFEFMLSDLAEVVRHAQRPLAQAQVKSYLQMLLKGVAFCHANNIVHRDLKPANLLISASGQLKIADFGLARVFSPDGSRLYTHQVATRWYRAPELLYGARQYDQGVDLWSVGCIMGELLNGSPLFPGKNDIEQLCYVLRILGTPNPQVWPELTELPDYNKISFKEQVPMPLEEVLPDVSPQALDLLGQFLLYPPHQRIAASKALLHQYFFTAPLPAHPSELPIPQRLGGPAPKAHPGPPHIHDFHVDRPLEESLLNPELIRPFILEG

Regarding `CCn1c(-c2nc3cc(C(=O)N4CCCC(N)C4)ccc3n2C)cc2ccccc21` (centres undefined), the pXC50 in assay [1] was 4.4 M. Take `CC[C@@H](Nc1c(C#N)c(-c2ccc(-c3cccc(C)c3F)cc2)nc2cnccc12)C(=O)O` [BAY-091]: the % of inhibition in assay [2] is 20.6%.

With `Cn1cc(-n2cnc3c(NCc4nc5cc(Cl)c(Cl)cc5[nH]4)nc(N4CCOCC4)nc32)cn1`, the % of inhibition in assay [3] is -25.6%. As to `CC[C@@H]1[C@H](F)C(=O)N[C@@H]1COc1nccc2cc(C(N)=O)c(OC)cc12` [ZIMLOVISERTIB], the % of inhibition in [4] was 14.6%. In the case of `COc1cc(N(C)c2ccnc3ccc(C(F)(F)F)cc23)cc(OC)c1OC`, the % binding in assay [5] was determined as 85%. Regarding `N#Cc1cccc(-c2c[nH]c3ncnc(N4CCOCC4)c23)c1`, in assay [6], the % of inhibition amounted to 27%. Moreover, the % of control in assay [7] stood at 25%. In [8], `C=CC(=O)Nc1ccc(C(=O)Nc2[nH]nc3c2CN(C(=O)N[C@H](CN(C)C)c2ccccc2)C3(C)C)cc1` came in with a % of engagement of 4.7%. Molecule `O[C@H]1CC[C@H](Nc2ncc3nc(Nc4c(F)cc(F)cc4F)n([C@H]4CCOC4)c3n2)CC1` returned a % of control in [9] of 80%.
